Among the data in patent publication US8012956B2, “Tropane compounds” (Exelixis, Inc., priority 2007, dated 2011) are IC50 values, retold here.

Where only a bound is given, the exact number is not on record here.

The target of this experiment is HSP90 (Homo sapiens, UniProt P07900). Kind of experiment: HSP90 inhibition (HSP90 IC50). Type of experiment: biochemical.
Regarding “N4-[8-(5-butanoylpyridin-2-yl)-8- azabicyclo[3.2.1]oct-3-endo-yl]-2- [(cyclopropylmethyl)amino]benzene- 1,4-dicarboxamide”, the IC50 (commonly the concentration needed to halve the response being measured) was 500 to 999 nM.

The compound `CCNc1cc(C(N)=O)c(N[C@H](C)CC)cc1C(=O)NC1CC2CCC(C1)N2c1ccc(C(=O)C2CC2)cn1` (stereo partly drawn) [N-{8-[5-(cyclopropylcarbonyl)pyridin-2-yl]-8-azabicyclo[3.2.1]oct-3-endo-yl}-2-(ethylamino)-5-{[(1R)-1-methylpropyl]amino}benzene-1,4-dicarboxamide] returned an IC50 of 2000 to 10000 nM.

The compound `NC(=O)c1ccc(C(=O)N[C@H]2C[C@H]3CC[C@@H](C2)N3c2ccc(C(=O)C3CC3)cn2)s1` [N-{8-[5-(cyclopropylcarbonyl)pyridin-2-yl]-8-azabicyclo[3.2.1]oct-3-endo-yl}thiophene-2.5-dicarboxamide] gave an IC50 of 1000 to 2000 nM.

Consider `CCCOCCCNC(=O)c1ccc(N2[C@@H]3CC[C@H]2C[C@@H](NC(=O)c2cccc(OC)c2C)C3)nc1` [6-[3-endo-({[2-methyl-3-(methyloxy)phenyl]carbonyl}amino)-8-azabicyclo[3.2.1]oct-8-yl]-N-[3-endo-(propyloxy)propyl]pyridine-3-carboxamide], for which the IC50 fell in the range of 500 to 999 nM.

In turn, `CCN(CC)CCOc1ccc([C@H](C)NC(=O)c2ccc(N3C4CCC3CC(NC(=O)c3cccc(OC)c3C)C4)nc2)cc1` (stereo partly drawn) [N-[(1S)-1-(4-{[2-(diethylamino)ethyl]oxy}phenyl)ethyl]-6-[3-endo-({[2-methyl-3-(methyloxy)phenyl]carbonyl}amino)-8-azabicyclo[3.2.1]oct-8-yl]pyridine-3-carboxamide] gave an IC50 of under 500 nM.

`Cc1cc(C(=O)NC2CC3CCC(C2)N3c2ccc(C(=O)N[C@@H](C)c3ccc(N4CCN(C)CC4)cc3)cn2)c(C)cc1C(N)=O` (stereo partly drawn) [2,5-dimethyl-N-(8-{5-[({(1S)-1-[4-(4-methylpiperazin-1-yl)phenyl]ethyl}amino)carbonyl]pyridin-2-yl}-8-azabicyclo[3.2.1]oct-3-endo-yl)benzene-1,4-dicarboxamide] came in with an IC50 of under 500 nM.

In the case of `CC(C)[C@@H](C)Nc1cc(C(=O)NC2CC3CCC(C2)N3c2ccc(C(=O)C3CC3)cn2)ccc1C(N)=O` (stereo partly drawn) [N4-(8-[5-(cyclopropylcarbonyl)pyridin-2-yl]-8-azabicyclo[3.2.1]oct-3-endo-yl)-2-{[(1R)-1,2-dimethylpropyl]amino}benzene-1,4-dicarboxamide], the IC50 is under 500 nM.

Compound `CCC(CC)Nc1cc(C(=O)N[C@H]2C[C@H]3CC[C@@H](C2)N3c2ccc(C(=O)C3CC3)cn2)c(Br)cc1C(N)=O` [2-bromo-N-{8-[5-(cyclopropylcarbonyl)pyridin-2-yl]-8-azabicyclo[3.2.1]oct-3-endo-yl}-5-[(1-ethylpropyl)amino]benzene-1,4-dicarboxamide] had a half-inhibitory concentration (IC50) of under 500 nM.

Compound `COc1cccc(C(=O)NC2CC3CCC(C2)N3c2ccc(C(=O)N[C@@H]3CCNC3)cn2)c1C` (stereo partly drawn) [6-[3-endo-({[2-methyl-3-(methyloxy)phenyl]carbonyl}amino)-8-azabicyclo[3.2.1]oct-8-yl]-N-[(3R)-pyrrolidin-3-yl]pyridine-3-carboxamide] showed an IC50 of 500 to 999 nM.

`Cc1cc(C(N)=O)c(NCC(C)C)cc1C(=O)N[C@H]1C[C@H]2CC[C@@H](C1)N2c1ccc(C(=O)C2CC2)cn1` [N-{8-[5-(cyclopropylcarbonyl)pyridine-2-yl]-8-azabicyclo[3.2.1]oct-3-endo-yl}-2-methyl-5-[(2-methylpropyl)amino]benzene-1,4-dicarboxamide]: the half-maximal inhibitory concentration (IC50) was under 500 nM.

`CCCC(CCC)Nc1cc(C(=O)N[C@H]2C[C@H]3CC[C@@H](C2)N3c2ccc(C(C)=O)cn2)ccc1C(N)=O` [N4-[8-(5-acetylpyridin-2-yl)-8-azabicyclo[3.2.1]oct-3-endo-yl]-2-[(1-propylbutyl)amino]benzene-1,4-dicarboxamide] registered a half-inhibitory concentration (IC50) of under 500 nM.

`CC(=O)c1ccc(N2[C@@H]3CC[C@H]2C[C@@H](NC(=O)c2ccc(C(N)=O)c(Nc4cccc(OCCN(C)C)c4)c2)C3)nc1` [N4-[8-(5-acetylpyridin-2-yl)-8-azabicyclo[3.2.1]oct-3-endo-yl]-2-[(3-{[2-(dimethylamino)ethyl]oxy}phenyl)amino] benzene-1,4-dicarboxamide] returned an IC50 of under 500 nM.

`CC(C)CNc1cc(C(=O)N[C@H]2C[C@H]3CC[C@@H](C2)N3c2ccc(C(=O)C3CC3)cn2)c(Br)cc1C(N)=O` [2-bromo-N-{8-[5-(cyclopropylcarbonyl)pyridin-2-yl]-8-azabicyclo[3.2.1]oct-3-endo-yl}-5-[(2-methylpropyl)amino]benzene-1,4-dicarboxamide] displayed a concentration for half-maximal inhibition (IC50) of under 500 nM.

The compound `COc1ccc([C@H](C)NC(=O)c2ccc(N3C4CCC3CC(NC(=O)c3cccc(OC)c3C)C4)nc2)cc1` (some centres unmarked) registered a 50% inhibitory concentration (IC50) of under 500 nM.

`Cc1cc(C(N)=O)c(N)cc1C(=O)N[C@H]1C[C@H]2CC[C@@H](C1)N2c1ccc(C(=O)C2CC2)cn1` [5-amino-N-{8-[5-(cyclopropylcarbonyl)pyridin-2-yl]-8-azabicyclo[3.2.1]oct-3-endo-yl}-2-methylbenzene-1,4-dicarboxamide]: the IC50 is under 500 nM.

`CNc1cccc(C(=O)NC2CC3CCC(C2)N3c2ccc(C(=O)N[C@@H](C)c3ccc(N4CCN(C)CC4)cc3)cn2)c1C` (stereo partly drawn) [6-[3-endo-({[2-methyl-3-(methylamino)phenyl]carbonyl}amino)-8-azabicyclo[3.2.1]oct-8-yl]-N-{(1S)-1-[4-(4-methylpiperazin-1-yl)phenyl]ethyl}pyridine-3-carboxamide] came in with an IC50 of under 500 nM.

`COc1ccc([C@H](C)NC(=O)c2ccc(N3C4CCC3CC(NC(=O)c3cccc(OC)c3C)C4)nc2)c(F)c1` (stereo partly drawn) [N-{(1S)-1-[2-fluoro-4-(methyloxy)phenyl]ethyl}-6-[3-endo-({[2-methyl-3-(methyloxy)phenyl]carbonyl}amino)-8-azabicyclo[3.2.1]oct-8-yl]pyridine-3-carboxamide] gave a 50% inhibitory concentration (IC50) of under 500 nM.

Compound `NC(=O)c1ccc(C(=O)N[C@H]2C[C@H]3CC[C@@H](C2)N3c2ccc(C(=O)CCc3ccccc3)cn2)cc1NCC1CC1` [2-[(cyclopropylmethyl)amino]-N4-{8-[5-(3-phenylpropanoyl)pyridin-2-yl]-8-azabicyclo[3.2.1]oct-3-endo-yl}benzene-1,4-dicarboxamide] came in with an IC50 of 2000 to 10000 nM.

`CCOCCCNC(=O)c1ccc(N2[C@@H]3CC[C@H]2C[C@@H](NC(=O)c2cccc(OC)c2C)C3)nc1` [N-[3-(ethyloxy)propyl]-6-[3-endo-({[2-methyl-3-(methyloxy)phenyl]carbonyl}amino)-8-azabicyclo[3.2.1]oct-8-yl]pyridine-3-carboxamide] yielded an IC50 of 1000 to 2000 nM.

`Cc1cc(C(=O)NC2CC3CCC(C2)N3c2ccc(C(=O)N[C@@H]3CCCN(C)C3)cn2)c(C)cc1C(N)=O` (stereo partly drawn) [2,5-dimethyl-N-{8-[5-({[(3R)-1-methylpiperidin-3-yl]amino}carbonyl)pyridin-2-yl]-8-azabicyclo[3.2.1]oct-3-endo-yl}benzene-1,4-dicarboxamide] displayed a concentration for half-maximal inhibition (IC50) of under 500 nM.

Consider `COc1cccc(C(=O)NC2CC3CCC(C2)N3c2ccc(C(=O)N[C@H](C)C(C)C)cn2)c1C` (stereo partly drawn) [N-[(1R)-1,2-dimethylpropyl]-6-[3-endo-({[2-methyl-3-(methyloxy)phenyl]carbonyl}amino)-8-azabicyclo[3.2.1]oct-8-yl]pyridine-3-carboxamide], for which the IC50 is 2000 to 10000 nM.

The compound `COc1ccccc1NC(=O)c1ccc(N2[C@@H]3CC[C@H]2C[C@@H](NC(=O)c2cccc(OC)c2C)C3)nc1` [6-[3-endo-({[2-methyl-3-(methyloxy)phenyl]carbonyl}amino)-8-azabicyclo[3.2.1]oct-8-yl]-N-[2-(methyloxy)phenyl]pyridine-3-carboxamide] displayed a concentration for half-maximal inhibition (IC50) of 2000 to 10000 nM.

Regarding `CCC(CC)Nc1cc(C(=O)N[C@H]2C[C@H]3CC[C@@H](C2)N3c2ccc(C(=O)C3CC3)cn2)c(C(F)(F)F)cc1C(N)=O` [N-{8-[5-(cyclopropylcarbonyl)pyridine-2-yl]-8-azabicyclo[3.2.1]oct-3-endo-yl}-5-[(1-ethylpropyl)amino]-2-(trifluoromethyl)benzene-1,4-dicarboxamide], the IC50 was under 500 nM.

`CCCNc1cc(C(=O)N[C@H]2C[C@H]3CC[C@@H](C2)N3c2ccc(C(=O)C3CC3)cn2)c(Br)cc1C(N)=O` [2-bromo-N-{8-[5-(cyclopropylcarbonyl)pyridin-2-yl]-8-azabicyclo[3.2.1]oct-3-endo-yl}-5-(propylamino)benzene-1,4-dicarboxamide] had an IC50 of under 500 nM.

The compound `COc1cccc(C(=O)N[C@H]2C[C@H]3CC[C@@H](C2)N3c2ccc(C(=O)NCc3ccccc3N3CCN(C)CC3)cn2)c1C` [6-[3-endo-({[2-methyl-3-(methyloxy)phenyl]carbonyl}amino)-8-azabicyclo[3.2.1]oct-8-yl]-N-{[2-(4-methylpiperazin-1-yl)phenyl]methyl}pyridine-3-carboxamide] had an IC50 of 1000 to 2000 nM.

Regarding `CC(=O)c1ccc(N2C3CCC2CC(NC(=O)c2ccc(C(N)=O)c(N[C@H]4CC[C@H](O)CC4)c2)C3)nc1` (stereo partly drawn) [N4-[8-(5-acetylpyridin-2-yl)-8-azabicyclo[3.2.1]oct-3-endo-yl]-2-[(trans-4-hydroxycyclohexyl)amino]benzene-1,4-dicarboxamide], the IC50 is under 500 nM.

Regarding `COc1cccc(C(=O)NC2CC3CCC(C2)N3c2ccc(C(=O)NC(C)c3c(F)cc(C4CCNCC4)cc3F)cn2)c1C` (stereo not drawn) [N-[1-(2,6-difluoro-4-piperidin-4-ylphenyl)ethyl]-6-[3-endo-({[2-methyl-3-(methyloxy)phenyl]carbonyl}amino)-8-azabicyclo[3.2.1]oct-8-yl]pyridine-3-carboxamide], the IC50 is 2000 to 10000 nM.

As for `CN1CCN(c2ccc(CNC(=O)c3ccc(N4[C@@H]5CC[C@H]4C[C@@H](NC(=O)c4ccc(C(N)=O)cc4)C5)nc3)cc2)CC1` [N-(8-{5-[({[4-(4-methylpiperazin-1-yl)phenyl]methyl}amino)carbonyl]pyridin-2-yl}-8-azabicyclo[3.2.1]oct-3-endo-yl)benzene-1,4-dicarboxamide], the IC50 is under 500 nM.

`Cc1cc(C(=O)N[C@H]2C[C@H]3CC[C@@H](C2)N3c2ccc(C(=O)N[C@@H]3CCN(C(C)C)C3)cn2)c(C)cc1C(N)=O` [2,5-dimethyl-N-{8-[5-({[(3R)-1-(1-methylethyl)pyrrolidin-3-yl]amino}carbonyl)pyridin-2-yl]-8-azabicyclo[3.2.1]oct-3-endo-yl}benzene-1,4-dicarboxamide] registered an IC50 of under 500 nM.
